In data set [1] the test system is hypertension induite par la phényléphrine. In words: Alpha-blocking activity in vivo: antagonism of phenylephrine-induced hypertension in pithed, bivagotomised rats (i.v.). On the set-up: species or system rats amyélés et bivagotomisés. The note with it: for ED50: Rattus norvegicus, iv, read-out: DE50 (the source's name). From the text:
ln vivo l'activité alpha bloquante est appréciée par la détermination de l'antagonisme de l'hypertension induite par la phényléphrine. Le produit à tester est administré par voie intraveineuse à des rats amyélés et bivagotomisés selon la technique de J.S.Gillespie et T.S. Muir (Br.J. Pharmac. Chemother., 1967, 30, 78-87). On indique ci-après pour le COR28 35, en fonction de la dose administrée, l'activité maximale et le temps au bout duquel l'activité résiduelle est égale à 50% de l'activité maximale : 4,42.10^-7 M/kg, --77,8%. 30 mn; 10^-6 M/kg, -94,5%, 55 mn; 3,53.10^-6 M/kg, -97,1%, 90 mn. La DE50 déterminée dans ces conditions pour le COR28 35 est de 1,48.10^-8 mole/kg au bout de 2 mn, 6,77.10^-7 mole/kg au bout de 30 mn et 1,87.10^-6 mole/kg au bout de 60 mn.

The test system of data set [2] is contractions de strips aortiques isolés de lapin induites par la noradrénaline. Nature of the data set: Alpha-blocking activity in vitro: antagonism of noradrenaline-induced contractions of isolated rabbit aortic strips. It is filed as cell-based. The note with it: Oryctolagus cuniculus, 1 h; noradrenaline 2.10^-6 mole/l; compound added 60 mn before the agonist; limits in brackets; read-out: CI50 (concentration inhibant 50% des contractions). From the text: Activité alohabloauante : In vitro l'activité alphabloquante est appréciée par la détermination de l'antagonisme des contractions de strips aortiques isolés de lapin induites par la noradrénaline employée à la concentration de 2.10^-6 mole/l selon une technique dérivée de celle de Furchgott et Bhadrakom (J. Pharmacol., 1953, 108, 129-43). L'activité maximale est obtenue quand le COR28 35 est introduit dans le bain 60 mn avant l'agoniste. La CI50 (concentration inhibant 50% des contractions) est égale dans ces conditions à 1,52.10-' (1,12.10^-7 -2,07.10-') mole/l.

The test system of data set [3] is contraction induite par 5.10^-7g/ml de sérotonine sur iléon isolé de cobaye. Nature of the data set: Antiserotoninergic activity: serotonin-induced contraction of isolated guinea-pig ileum. In kind it is cell-based. The note with it: serotonin 5.10^-7g/ml; compound in contact 15 mn before the agonist; limits in brackets; read-out: CI50 (ou concentration inhibant 50% des contractions). From the text:
Activité antisérotoninergigue : le COR28 35 inhibe in vitro la contraction induite par 5.10^-7g/ml de sérotonine sur iléon isolé de cobaye. L'effet maximum est obtenu quand le COR28 35 est mis au contact de l'organe isolé 15 mn avant d'introduire l'agoniste. La CI50 (ou concentration inhibant 50% des contractions) est dans ces conditions de 1,58.10^-7(1,00.10^-7-2,51.10^-7) mole/l.

The test system of data set [4] is souris rendue hy- percholestérotémique. Nature of the data set: Hypolipidaemic activity in mice made hypercholesterolaemic by diet. It is filed as in vivo. The note with it: mouse, oral, 200 mg/kg on days 6 and 7 of the diet. As for the experimental part: Activité hvoolioidémiante : chez la souris rendue hy- percholestérotémique par un régime riche en cholestérol et acide cholique pendant 7 jours, l'administration de 200 mg/kg de COR28 35 par voie orale, le 6° et le 7° jour, entraine une diminution du cholestérol sérique de 17% et une diminution des HP-bétalipoprotéines de 27% accompagnées d'une diminution du rapport VLDL + LDL/cholestérol.

The test system of data set [5] is effet hypertenseur induit par 4.10-' mg/kg de phényléphrine. Nature of the data set: Alpha-blocking activity in conscious normal rats: antagonism of the phenylephrine pressor effect (oral). It is filed as in vivo, rat Sprague-Dawley normal vigile. From the text:
L'activité alphabloquante des produits selon la présente invention à également été déterminée chez le rat Sprague-Dawley normal vigile. Les veines jugulaires et les artères carotides des animaux sont cathétérisées sous anesthésie à l'éther. Après récupération d'une heure, la pression artérielle et la fréquence cardiaque sont enregistrées de façon continue. L'activité des produits à tester, administrés par voie oral, vis à vis de l'effet hypertenseur induit par 4.10-' mg/kg de phényléphrine est déterminée. On indique ci-après pour le COR28 35, en fonction de la dose administrée, l'activité maximale et le temps au bout duquel l'activité résiduelle est égale à 50% de l'activité maximale : 5 mg/kg, -38,75%, 66 mm; 10 mg/kg, --37.18%. 65 mn; 20 mg/kg, -66,37%, 66 mn.

Data set [6] deals with rats spontanément hypertendus. Nature of the data set: Antihypertensive activity in spontaneously hypertensive rats (oral). In kind it is in vivo. As for the experimental part: Activité antihvoertensive : le produit à tester est administré par voie orale à des rats spontanément hypertendus. La pression artérielle est mesurée de façon indirecte en utilisant un sphygmomanomètre. Pour le COR28 35 administré à la dose de 100 mg/kg/j pendant 2 jours, la chute de pression maximale observée est de 14% le premier jour de traitement, 1 heure après le gavage. […] Administré dans les mêmes conditions à la dose de 50 mg/kg/j, la chute de pression artérielle maximale est de 15% 1 heure après gavage.

Data set [7] has as its system souris. In words: Acute toxicity (mortality, LD50) in mice. In kind it is in vivo. The settings on record: mouse.
Data set [8] in a line: Acute toxicity (mortality, LD50) in mice. It is filed as in vivo. The note with it: in vivo, mouse.
Data set [9] has as its system tremblements musculaires produits chez la souris par l'administration de 0,5 mg/kg d'oxotrémorine. Nature of the data set: Anticholinergic activity: oxotremorine-induced muscle tremors in mice. In kind it is in vivo. The note with it: mouse, intraperitoneal, assessed one hour after administration, oxotremorine 0,5 mg/kg s.c. As for the experimental part:
Activité anticholineraiaue : l'activité inhibitrice des produits de la présente invention vis à vis des tremblements musculaires produits chez la souris par l'administration de 0,5 mg/kg d'oxotrémorine par voie sous cutanée est déterminée. L'eftet est apprécié une heure après l'administration par voie intrapéritonéale des produits à tester; dans ces conditions, le COR28 35 est actif à la dose de 5mg/kg.

Data set [10] has as its system anaphylaxie passive cutanée. Nature of the data set: Antiallergic activity: passive cutaneous anaphylaxis test. It is filed as in vivo. The note with it: rat, oral. As for the experimental part: Activité antiallergigue : dans le test de l'anaphylaxie passive cutanée, le COR28 35 administré à 5 mg/kg par voie orale chez le rat entraine 60% d'activité. La prométhazine, administrée dans les mêmes conditions, entraine 53% d'activité à la dose de 10 mg/kg.

The test system of data set [11] is contractions induites par 2,5.10^-8 g/ml d'angiotensine I sur des préparations de segments d'iléon de cobaye. Nature of the data set: Inhibition of angiotensin I-induced contractions of guinea-pig ileum segments. In kind it is cell-based. The settings on record: concentration 10-' g/ml; angiotensin I 2,5.10^-8 g/ml added 2 mn after the compound. The text has this: L'activité inhibitrice des produits de la présente invention vis à vis des contractions induites par 2,5.10^-8 g/ml d'angiotensine I sur des préparations de segments d'iléon de cobaye a été déterminée. L'angiotensine 1 est introduite dans le bain 2 mn après le produit à tester. Dans ces conditions, le COR28 35 entraine 51% d'inhibition des contractions à la concentration de 10-' g/ml.

Read-outs that look alike come from different tables or passages of the source.

Turning to `Cc1cc(OCCN(C)CCOc2cc(C)c(O)cc2C(C)C)c(C(C)C)cc1O` [COR28 35], the ED50 in data set [1] (2 min, i.v., after 2 mn) turned out to be 0.0148 µmol/kg; in data set [1] (0.5 h, i.v., after 30 mn), 0.677 µmol/kg; in [1] (1 h, i.v., after 60 mn), 1.87 µmol/kg. Also, the activité maximale in data set [1] (i.v., 3,53.10^-6 M/kg) is listed as -97,1%; in data set [1] (i.v., 10^-6 M/kg) it was -94,5%; in data set [5] (5 mg/kg) it was -38,75%; in [5] (20 mg/kg), -66,37%. Besides, the “temps au bout duquel l'activité résiduelle est égale à 50% de l'activité maximale” value in data set [1] (i.v., 3,53.10^-6 M/kg) came to 90 mn; in [1] (i.v., 4,42.10^-7 M/kg), 30 mn; in data set [1] (i.v., 10^-6 M/kg), 55 mn; in [5] (5 mg/kg), 66 min; in data set [5] (10 mg/kg) it was 65 mn; in data set [5] (20 mg/kg), 66 mn. Further, the results for the IC50 in data set [2] and in [3] were 152 nM and 158 nM, respectively. In addition, the “diminution des HP-bétalipoprotéines” value in data set [4] was determined as 27%. The “diminution du cholestérol sérique” value in [4] was 17%. For the same compound, in [4], the “rapport VLDL + LDL/cholestérol” value is “diminution”. The “chute de pression artérielle maximale” value in data set [6] (50 mg/kg/j, 1 hour after gavage) was found to be 15%. Moreover, the “pression par rapport au lot témoin” value in data set [6] (100 mg/kg/j for 2 days, 6 hours after gavage on the second day) is recorded as “significativement abaissée”. In [6] (100 mg/kg/j for 2 days, first day of treatment, 1 hour after gavage), the “chute de pression maximale observée” value was 14%. Besides, the mortalité result in data set [7] (intraperitoneal, 500 mg/kg) is “aucune mortalité”; in data set [7] (oral, 300 mg/kg), “aucune mortalité”. Further, the mortality in [8] (ip, intraperitoneal, 1000 mg/kg, read-out: mortalité) was found to be 40%. In data set [8] (intravenous, limits in brackets, read-out: DL50 (the source's name)), the LD50 amounted to 53.5 mg/kg. Moreover, the “activité inhibitrice vis à vis des tremblements musculaires” value in data set [9] is “actif”. In data set [10] (5 mg/kg), the activité came to 60%. The inhibition des contractions in [11] is reported as 51%.

The compound `CC(CN1c2ccccc2Sc2ccccc21)N(C)C` (centres unmarked) [prométhazine, reference compound] registered an activité in data set [10] (10 mg/kg) of 53%.

Source of the values: patent publication EP0188169A1, “Bis-2-(4-hydroxy-2-isopropyl-5-methyl-phenoxy)-ethyl amines, process for their synthesis and pharmaceutical preparations containing them” (CORTIAL S.A., priority 1984, dated 1986).
